{"source": "patent US20080096981A1", "about": "“Antibodies against inducible TH2 cell factors” (Genaera Corporation, priority 1999, published 2008)", "test_system": "TH2AF1", "assay": "TH2AF1 expression in lung of C57BL/6 mice after intratracheal instillation of recombinant cytokines", "format": "in vivo, mouse", "settings": "recombinant cytokine instilled into trachea of C57BL/6 mice, FIG. 5", "procedure": "To confirm that the expression of IL-9 was critically related to the expression of TH2AF1 and to control for genetic background specifically, recombinant murine IL-9 was introduced into the lung of murine strain C57BL/6. Recombinant IL-9 was instilled into the trachea of anesthetized mice by addition of 50 μl of a 0.1 mg/ml IL-9 solution or vehicle alone (0.1% bovine serum albumin) daily for ten days. After ten days, the mice were euthanized and lungs extracted for either RNA expression analysis using Trizol as described by the manufacturer (Gibco-BRL) or Western blot analysis to determine levels of IL-9 instilled.\nExpression of TH2AF1 RNA was measured as described in Example 3. […] Ribosomal RNAs (rRNA, lower panel) were stained using ethidium bromide (lower panel) to control for RNA loading.", "note": "“Also recorded” adds a separate entry of the source.", "data": [{"molecule": "interferon gamma: recombinant TH1 associated cytokine", "values": [{"measurement": "induction of TH2AF1 expression in the lung (steady state mRNA)", "result": "did not induce and not"}]}, {"molecule": "IL-9: recombinant murine IL-9, TH2 associated cytokine (protein, UniProt P15247 19-144, looked up) Interleukin-9: QRCSTTWGIRDTNYLIENLKDDPPSKCSCSGNVTSCLCLSVPTDDCTTPCYREGLLQLTNATQKSRLLPVFHRVKRIVEVLKNITCPSFSCEKPCNQTMAGNTLSFLKSLLGTFQKTEMQRQKSRP", "values": [{"measurement": "induction of TH2AF1 expression in the lung (steady state mRNA)", "result": "expressed; also recorded: induced the expression"}]}]}
